Laboratory results: PMC11840788, “3,3′-Diindolylmethane (DIM): A Molecular Scaffold for Inhibition of WWP1 and WWP2, Members of the NEDD4 Family HECT E3 Ligases” (ACS Omega, 2025)

Target: T1, WWP1-2L34H (Homo sapiens, UniProt Q9H0M0)
T1 construct: WWP1-WW2-2,3-linker-WW3-WW4-HECT (WWP1-2L34H); His-Trx (3C site) (N, cleaved yes); made in house; host or cells: E. coli BL21-CodonPlus RP (plasmid pET32a-WWP1-2L34H, gift of Dr Wenyu Wen)
Experiment: differential scanning fluorimetry (DSF), WWP1
Assay type: binding
Conditions: 100 μM compound, 0.1% DMSO, Boltzmann fit
Excerpt: Differential scanning fluorimetry (DSF) was utilized to initially assess interactions of I3C with both WWP1 and WWP2. Although binding of I3C to WWP1 has been reported previously,[25] we wanted to determine whether such interactions are observed with a protein construct containing the WW2 domain, given its proximity to the proposed exo binding site. In this regard, the WWP1-WW2-2,3-linker-WW3-WW4-HECT (WWP1-2L34H) and WWP2-WW2-2,3-linker-HECT (WWP2-LH) constructs were chosen (SI Figure S2) and DSF assays performed using 100 μM I3C (0.1% DMSO) with midpoint melting temperature (Tm) determined by fitting a Boltzmann regression to the melting curve (Figure 2A). Three independent repeat experiments were performed. […] This is in marked contrast to that seen when using the simple WWP1 HECT domain as a target.[30]
A 96 well-plate (MicroAmp Optical) was loaded with 18 μL of 3.8 μM WWP1-2L34H and 2.5 μM WWP2-LH, in their respective buffers (SI Table S5) containing 5 × SYPRO orange dye. […] The plates were briefly centrifuged before the assay was run using an ABI 7500 RT-PCR following the melt curve using ROX (575 nm) as the “preset” fluorescence dye. […] The midpoint melting temperature (Tm) was calculated using a Boltzmann fit to the fluorescence curve using Protein Thermal Shift Software v1.4 (ThermoFisher). […]

T1 sequence (Q9H0M0 379-922 limits assumed): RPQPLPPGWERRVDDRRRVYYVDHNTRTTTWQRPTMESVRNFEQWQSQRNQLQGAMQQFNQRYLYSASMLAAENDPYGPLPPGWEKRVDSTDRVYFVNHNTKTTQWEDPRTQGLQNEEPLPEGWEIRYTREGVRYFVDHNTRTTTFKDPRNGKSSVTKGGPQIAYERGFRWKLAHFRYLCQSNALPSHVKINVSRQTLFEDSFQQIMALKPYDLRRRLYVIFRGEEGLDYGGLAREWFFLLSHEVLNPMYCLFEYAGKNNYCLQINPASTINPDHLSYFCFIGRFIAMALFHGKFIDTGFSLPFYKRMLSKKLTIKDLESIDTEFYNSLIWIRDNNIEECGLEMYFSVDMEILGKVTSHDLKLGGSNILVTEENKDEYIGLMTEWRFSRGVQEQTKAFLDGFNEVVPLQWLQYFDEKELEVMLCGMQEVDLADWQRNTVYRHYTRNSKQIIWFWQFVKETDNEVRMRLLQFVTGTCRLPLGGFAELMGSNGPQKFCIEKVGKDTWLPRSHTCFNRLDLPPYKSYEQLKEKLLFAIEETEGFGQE

SMILES: OCc1c[nH]c2ccccc12 [Compound I3C, Indole-3-carbinol, reference compound]
- ΔTm at 100 µM: 0.47 ± 0.15 °C
